Measured values: BigSolDB 2.1

COc1ccc([C@@H]2CC(=O)c3c(O)cc(O[C@@H]4O[C@H](CO[C@@H]5O[C@@H](C)[C@H](O)[C@@H](O)[C@H]5O)[C@@H](O)[C@H](O)[C@H]4O)cc3O2)cc1O
Conditions | solubility (mole fraction)
in PEG-400, 298.15 K | 0.00633
in PEG-400, 303.15 K | 0.00749
in PEG-400, 313.15 K | 0.00985
in PEG-400, 323.15 K | 0.0124
in PEG-400, 333.15 K | 0.0152

solubility (mole fraction)
Conditions | in ethanol | in isopropanol | in n-butanol | in propylene glycol | in water
298.15 K | 3.45e-05 | 1.53e-05 | 0.000315 | 0.000535 | 1.47e-07
303.15 K | 3.95e-05 | 1.87e-05 | 0.000359 | 0.000647 | 1.52e-07
313.15 K | 5.27e-05 | 2.61e-05 | 0.000461 | 0.000886 | 1.61e-07
323.15 K | 6.56e-05 | 3.82e-05 | 0.000582 | 0.00114 | 1.7e-07
333.15 K | 8.45e-05 | 5.86e-05 | 0.000715 | 0.00158 | 1.8e-07
